In the Kinase Knowledgebase extract (Sharma et al. 2016):

The molecules below were run against PIK3CA (human) (UniProt P42336) (assay: Assessment of PIK3CA Kinase Activity).
Sequence of PIK3CA (human) (P42336 whole entry, looked up): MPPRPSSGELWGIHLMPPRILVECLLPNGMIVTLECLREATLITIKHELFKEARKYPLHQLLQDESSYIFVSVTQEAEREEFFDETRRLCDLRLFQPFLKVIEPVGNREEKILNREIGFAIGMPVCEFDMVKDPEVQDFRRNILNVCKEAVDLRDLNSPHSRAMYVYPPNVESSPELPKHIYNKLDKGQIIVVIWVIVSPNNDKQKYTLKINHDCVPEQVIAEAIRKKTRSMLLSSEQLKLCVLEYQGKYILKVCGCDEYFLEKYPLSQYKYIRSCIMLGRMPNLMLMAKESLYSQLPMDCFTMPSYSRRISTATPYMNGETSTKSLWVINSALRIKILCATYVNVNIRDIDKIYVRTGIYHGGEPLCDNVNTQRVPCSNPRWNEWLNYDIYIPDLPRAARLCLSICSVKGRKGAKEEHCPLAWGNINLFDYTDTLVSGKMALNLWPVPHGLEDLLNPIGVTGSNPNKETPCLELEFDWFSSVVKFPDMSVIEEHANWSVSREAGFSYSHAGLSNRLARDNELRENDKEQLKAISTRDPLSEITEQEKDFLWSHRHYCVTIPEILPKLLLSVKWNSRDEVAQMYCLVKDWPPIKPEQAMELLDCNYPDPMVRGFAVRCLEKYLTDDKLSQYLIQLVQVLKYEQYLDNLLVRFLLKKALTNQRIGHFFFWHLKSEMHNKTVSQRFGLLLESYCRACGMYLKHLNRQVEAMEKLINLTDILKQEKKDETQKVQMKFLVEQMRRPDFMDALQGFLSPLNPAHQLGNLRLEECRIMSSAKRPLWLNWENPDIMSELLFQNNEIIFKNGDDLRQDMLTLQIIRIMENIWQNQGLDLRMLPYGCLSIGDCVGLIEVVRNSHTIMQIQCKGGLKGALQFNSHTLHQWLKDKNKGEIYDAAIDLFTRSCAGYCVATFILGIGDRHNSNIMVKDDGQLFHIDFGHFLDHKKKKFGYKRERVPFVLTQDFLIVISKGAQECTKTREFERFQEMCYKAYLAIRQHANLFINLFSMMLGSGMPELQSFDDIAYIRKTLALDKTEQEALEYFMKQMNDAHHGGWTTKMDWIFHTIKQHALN

Compound | IC50
CN1CCN(C(=O)c2ccc(NC(=O)Nc3ccc(-c4nc(N5CCOCC5)c5ccc(-c6cccnc6)cc5n4)cc3)cc2)CC1 | < 50 nM
CC(O)c1ccc(-c2cnc3c(N4CCOCC4)nc(-c4ccc(NC(=O)Nc5ccc(C(=O)N(C)C)cc5)c(F)c4)nc3c2)o1 (configuration not stated) | < 50 nM
COc1ccc(-c2ccc3c(N4CCOCC4)nc(-c4ccc(NC(=O)Nc5ccc(C(=O)N(C)C)cc5)cc4)nc3c2)cn1 | < 50 nM
CN(C)CCNC(=O)c1ccc2c(N3CCOCC3)nc(-c3ccc(NC(=O)Nc4ccc(C(=O)N(C)C)cc4)cc3)nc2c1 | 50 to 200 nM
CC(O)c1ccc(-c2ccc3c(N4CCOCC4)nc(-c4ccc(NC(=O)Nc5ccc(C(=O)N(C)C)cc5)c(F)c4)nc3c2)o1 (configuration not stated) | < 50 nM
CN(C)C(=O)c1ccc(NC(=O)Nc2ccc(-c3nc(N4CCOCC4)c4ccc(-c5ccc(C(=O)N(C)C)o5)cc4n3)cc2)cc1 | < 50 nM
CN1CCN(C(=O)c2ccc(NC(=O)Nc3ccc(-c4nc(N5CCOCC5)c5ccc(-c6cccc(S(C)(=O)=O)c6)cc5n4)cc3)cc2)CC1 | < 50 nM
CC1CN(c2nc(-c3ccc(NC(=O)Nc4ccc(C(=O)N(C)C)cc4)c(F)c3)nc3cc(-c4cncnc4)ccc23)CCO1 (configuration not stated) | 50 to 200 nM
COc1cc2nc(-c3ccc(NC(=O)Nc4ccc(C(=O)N(C)C)cc4)cc3)nc(N3CCOCC3)c2cc1OC | 50 to 200 nM
Cc1ncccc1-c1ccc2c(N3CCOCC3)nc(-c3ccc(NC(=O)Nc4ccc(C(=O)N(C)C)cc4)cc3F)nc2c1 | < 50 nM
CN(C)C(=O)c1ccc(NC(=O)Nc2ccc(-c3nc(N4CCOCC4)c4ccc(-c5ccnnc5)cc4n3)cc2F)cc1 | 50 to 200 nM
CNC(=O)c1ccc(NC(=O)Nc2ccc(-c3nc(N4CCOCC4)c4ccc(-c5cncnc5)cc4n3)cc2)cc1 | 50 to 200 nM
CN(C)C(=O)c1ccc(NC(=O)Nc2ccc(-c3nc(N4CCOCC4)c4ncc(-c5cncnc5)cc4n3)cc2)cc1 | < 50 nM
Cc1ccncc1-c1ccc2c(N3CCOCC3)nc(-c3ccc(NC(=O)Nc4ccc(C(=O)N5CCC(N(C)C)CC5)cc4)cc3)nc2c1 | < 50 nM
CN(C)C(=O)c1ccc(NC(=O)Nc2ccc(-c3nc(N4CCOCC4)c4ncc(-c5cccnc5)cc4n3)cc2)cc1F | < 50 nM
N[C@@H]1CCN(C(=O)c2ccc(NC(=O)Nc3ccc(-c4nc(N5CCOCC5)c5ccc(-c6cncnc6)cc5n4)cc3F)cc2)C1 | < 50 nM
COc1ccc(-c2ccc3c(N4CCOCC4)nc(-c4ccc(NC(=O)Nc5ccc(C(=O)N(C)C)cc5)cc4F)nc3c2)cn1 | 50 to 200 nM
CN(C)C(=O)c1ccc(NC(=O)Nc2ccc(-c3nc(N4CCOCC4)c4ccc(-c5cnc(N(C)C)nc5)cc4n3)cc2)cc1 | < 50 nM
CN(C)C(=O)c1ccc(NC(=O)Nc2ccc(-c3nc(N4CCOCC4)c4cc(F)c(-c5cncnc5)cc4n3)c(F)c2)cc1 | 50 to 200 nM
CC(=O)Nc1ccc(NC(=O)Nc2ccc(-c3nc(N4CCOCC4)c4ncc(-c5cnn(C)c5)cc4n3)cc2)cc1 | < 50 nM
CN(C)[C@@H]1CCN(C(=O)c2ccc(NC(=O)Nc3ccc(-c4nc(N5CCOCC5)c5ccc(-c6cncnc6)cc5n4)cc3)cc2)C1 | < 50 nM
CC1CN(c2nc(-c3ccc(NC(=O)Nc4ccc(C(=O)N(C)C)cc4)cc3)nc3cc(-c4cncnc4)ccc23)CCO1 (configuration not stated) | < 50 nM
CN(C)C(=O)c1ccc(NC(=O)Nc2ccc(-c3nc(N4CCOCC4)c4cc(F)c(-c5cccc(S(C)(=O)=O)c5)cc4n3)cc2)cc1 | < 50 nM
CN(C)[C@H]1CCN(C(=O)c2ccc(NC(=O)Nc3ccc(-c4nc(N5CCOCC5)c5ncc(-c6cncnc6)cc5n4)cc3)cc2)C1 | < 50 nM

Compound | IC50
CN(C)C(=O)c1ccc(NC(=O)Nc2ccc(-c3nc(N4CCOCC4)c4ncc(-c5cnn(C)c5)cc4n3)c(F)c2F)cc1 | < 50 nM
CN(C)C(=O)c1ccc(NC(=O)Nc2ccc(-c3nc(N4CCOCC4)c4ccc(-c5ccc(C(C)(C)O)o5)cc4n3)c(F)c2)cc1 | 50 to 200 nM
CN(C)C(=O)c1ccc(NC(=O)Nc2ccc(-c3nc(N4CCOCC4)c4ccc(-c5ccc(CO)o5)cc4n3)c(F)c2)cc1 | < 50 nM
CN(C)C(=O)c1ccc(NC(=O)Nc2ccc(-c3nc(N4CCOCC4)c4cc(F)c(-c5cccnc5)cc4n3)cc2)cc1 | < 50 nM
Cc1noc(C)c1-c1ccc2c(N3CCOCC3)nc(-c3ccc(NC(=O)Nc4ccc(C(=O)N(C)C)cc4)cc3)nc2c1 | < 50 nM
CN(C)CCNC(=O)c1ccc(-c2ccc3c(N4CCOCC4)nc(-c4ccc(NC(=O)Nc5ccc(C(=O)N(C)C)cc5)cc4)nc3c2)o1 | 50 to 200 nM
Cc1ccc(-c2ccc3c(N4CCOCC4)nc(-c4ccc(NC(=O)Nc5ccc(C(=O)N6CCN(C)CC6)cc5)cc4)nc3c2)o1 | 50 to 200 nM
CN(C)[C@@H]1CCN(C(=O)c2ccc(NC(=O)Nc3ccc(-c4nc(N5CCOCC5)c5cc(F)c(-c6cccnc6)cc5n4)cc3)cc2)C1 | < 50 nM
CN(C)C(=O)c1ccc(NC(=O)Nc2ccc(-c3nc(N4CCOCC4)c4ncc(-c5cnn(C)c5)cc4n3)cc2)cc1F | < 50 nM
CN(C)C(=O)c1ccc(NC(=O)Nc2ccc(-c3nc(N4CCOCC4)c4ccc(-c5cccnc5F)cc4n3)cc2)cn1 | 50 to 200 nM
Cc1ccc(-c2cc3nc(-c4ccc(NC(=O)Nc5ccc(C(=O)N(C)C)cc5)cc4)nc(N4CCOCC4)c3cc2F)o1 | 50 to 200 nM
CN(C)[C@H]1CCN(C(=O)c2ccc(NC(=O)Nc3ccc(-c4nc(N5CCOCC5)c5cc(F)c(-c6cccnc6)cc5n4)cc3)cc2)C1 | < 50 nM
Cc1ccncc1-c1cnc2c(N3CCOCC3)nc(-c3ccc(NC(=O)Nc4ccc(C(=O)N(C)C)cc4)cc3)nc2c1 | < 50 nM
CN(C)C(=O)c1ccc(NC(=O)Nc2ccc(-c3nc(N4CCOCC4)c4ccc(-c5ccc(CO)o5)cc4n3)cc2)cc1 | < 50 nM
CN(C)CC(=O)Nc1cncc(-c2ccc3c(N4CCOCC4)nc(-c4ccc(NC(=O)Nc5ccc(C(=O)N(C)C)cc5)cc4)nc3c2)c1 | < 50 nM
CN(C)C(=O)c1ccc(NC(=O)Nc2ccc(-c3nc(N4CCOCC4)c4cc(F)c(-c5cccnc5)cc4n3)cc2F)cc1 | 50 to 200 nM
CC(O)c1ccc(-c2cnc3c(N4CCOCC4)nc(-c4ccc(NC(=O)Nc5ccc(C(=O)N(C)C)cc5)cc4)nc3c2)o1 (configuration not stated) | < 50 nM
CN(C)C(=O)c1ccc(NC(=O)Nc2ccc(-c3nc(N4CCOCC4)c4ccc(-c5ccsc5)cc4n3)cc2)cc1 | < 50 nM
Cc1ccc(-c2ccc3c(N4CCOCC4)nc(-c4ccc(NC(=O)Nc5ccc(C(=O)N(C)C)nc5)nc4)nc3c2)o1 | < 50 nM
O=C(Nc1ccc(C(=O)N2CCC(O)C2)cc1)Nc1ccc(-c2nc(N3CCOCC3)c3ccc(-c4ccco4)cc3n2)cc1 (configuration not stated) | < 50 nM
CN(C)C(=O)c1ccc(NC(=O)Nc2ccc(-c3nc(N4CCOCC4)c4ccc(-c5ccncc5)cc4n3)cc2F)cc1 | 50 to 200 nM
CN(C)C(=O)c1ccc(NC(=O)Nc2ccc(-c3nc(N4CCOCC4)c4ccc(-c5cncnc5)cc4n3)cc2F)cc1 | 50 to 200 nM
CN(C)C(=O)c1ccc(NC(=O)Nc2ccc(-c3nc(N4CCOCC4)c4ccc(-c5cccc(NS(C)(=O)=O)c5)cc4n3)cc2)cc1 | < 50 nM
CN(C)[C@@H]1CCN(C(=O)c2ccc(NC(=O)Nc3ccc(-c4nc(N5CCOCC5)c5ccc(C(C)(C)O)cc5n4)cc3)cc2)C1 | 50 to 200 nM

Compound | IC50
CN(C)C(=O)c1ccc(NC(=O)Nc2ccc(-c3nc(N4CCOCC4)c4ccc(-c5ccc(C#N)o5)cc4n3)cc2)cc1 | < 50 nM
CN(C)C(=O)c1ccc(NC(=O)Nc2ccc(-c3nc(N4CCOCC4)c4ncc(-c5cccc(S(C)(=O)=O)c5)cc4n3)cc2)cc1 | < 50 nM
CN1CCN(C(=O)c2ccc(-c3ccc4c(N5CCOCC5)nc(-c5ccc(NC(=O)Nc6ccc(C(=O)N(C)C)cc6)cc5)nc4c3)o2)CC1 | < 50 nM
CN(C)CCNC(=O)c1ccc(NC(=O)Nc2ccc(-c3nc(N4CCOCC4)c4ccc(-c5ccco5)cc4n3)cc2)cc1 | < 50 nM
CN(C)C(=O)c1ccc(NC(=O)Nc2ccc(-c3nc(N4CCOCC4)c4ccc(-c5ccc(CO)o5)cc4n3)cc2)cc1F | < 50 nM
CN(C)C(=O)c1ccc(NC(=O)Nc2ccc(-c3nc(N4CCOCC4)c4ccc(-c5ccncc5)cc4n3)cc2)cc1 | < 50 nM
CN(C)[C@H]1CCN(C(=O)c2ccc(NC(=O)Nc3ccc(-c4nc(N5CCOCC5)c5ncc(-c6cnn(C)c6)cc5n4)cc3)cc2)C1 | < 50 nM
COc1ccc(-c2ccc3c(N4CCOCC4)nc(-c4ccc(NC(=O)Nc5ccc(C(=O)N(C)C)cc5)c(F)c4)nc3c2)cn1 | 50 to 200 nM
CN1CCN(C(=O)c2ccc(NC(=O)Nc3ccc(-c4nc(N5CCOCC5)c5ccc(-c6cccnc6F)cc5n4)cc3)cc2)CC1 | < 50 nM
CN(C)C(=O)c1ccc(NC(=O)Nc2ccc(-c3nc(N4CCOCC4)c4cc(F)c(-c5cnn(C)c5)cc4n3)cc2F)cc1 | 50 to 200 nM
CN(C)C(=O)c1ccc(NC(=O)Nc2ccc(-c3nc(N4CCOCC4)c4cc(F)c(-c5cncnc5)cc4n3)cc2)c(F)c1 | 50 to 200 nM
CN1CCN(C(=O)c2ccc(NC(=O)Nc3ccc(-c4nc(N5CCOCC5)c5ccc(-c6ccncc6)cc5n4)cc3F)cc2)CC1 | 50 to 200 nM
CN(C)C(=O)c1ccc(NC(=O)Nc2ccc(-c3nc(N4CCOCC4)c4ncc(-c5ccnnc5)cc4n3)cc2)cc1 | < 50 nM
CC(=O)Nc1ccc(NC(=O)Nc2ccc(-c3nc(N4CCOCC4)c4ccc(-c5ccc(C)o5)cc4n3)cc2)cc1 | 50 to 200 nM
CN(C)C(=O)c1ccc(NC(=O)Nc2ccc(-c3nc(N4CCOCC4)c4ccc(C(C)(C)O)cc4n3)cc2F)cc1 | 50 to 200 nM
CC(=O)c1ccc(-c2ccc3c(N4CCOCC4)nc(-c4ccc(NC(=O)Nc5ccc(C(=O)N(C)C)c(F)c5)cc4)nc3c2)o1 | < 50 nM
CN(C)Cc1ccc(-c2ccc3c(N4CCOCC4)nc(-c4ccc(NC(=O)Nc5ccc(C(=O)N(C)C)cc5)cc4)nc3c2)o1 | 50 to 200 nM
CN(C)C(=O)c1ccc(NC(=O)Nc2ccc(-c3nc(N4CCOCC4)c4ccc(-c5ccc(C(C)(C)O)o5)cc4n3)cc2)cc1 | < 50 nM
CN(C)C(=O)c1ccc(NC(=O)Nc2ccc(-c3nc(N4CCOCC4)c4ccc(-c5ccncc5F)cc4n3)cc2)cc1 | < 50 nM
CN(C)C(=O)c1ccc(NC(=O)Nc2ccc(-c3nc(N4CCOCC4)c4ccc(-c5cccc(F)c5)cc4n3)cc2)cc1 | 50 to 200 nM
CNC(=O)c1ccc(NC(=O)Nc2ccc(-c3nc(N4CCOCC4)c4ccc(-c5ccco5)cc4n3)cc2)cc1 | < 50 nM
CN(C)C(=O)c1ccc(NC(=O)Nc2ccc(-c3nc(N4CCOCC4)c4ccc(-c5ccccn5)cc4n3)cc2)cc1F | < 50 nM
Cc1noc(C)c1-c1ccc2c(N3CCOCC3)nc(-c3ccc(NC(=O)Nc4ccc(C(=O)N(C)C)cc4)c(F)c3)nc2c1 | < 50 nM
Cc1ccc(-c2ccc3c(N4CCOCC4)nc(-c4ccc(NC(=O)Nc5ccc(C(=O)N(C)C)cc5)cc4F)nc3c2)cn1 | < 50 nM
